For four compounds, dTm results are on record in paper PMC12136037, “Type II kinase inhibitors that target Parkinson’s disease–associated LRRK2” (Science Advances, 2025).

Assay in all cases: DSF 100 kinase selectivity screen;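 note: compound tested at 20 µM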
Type in all cases: binding

The target of assay [1] is T1, ~100 representative kinases (Homo sapiens, UniProt Q8TD08).
T1 construct: Recombinant protein kinase domains with a concentration of 2 μM
T1 sequence (Q8TD08 1-544): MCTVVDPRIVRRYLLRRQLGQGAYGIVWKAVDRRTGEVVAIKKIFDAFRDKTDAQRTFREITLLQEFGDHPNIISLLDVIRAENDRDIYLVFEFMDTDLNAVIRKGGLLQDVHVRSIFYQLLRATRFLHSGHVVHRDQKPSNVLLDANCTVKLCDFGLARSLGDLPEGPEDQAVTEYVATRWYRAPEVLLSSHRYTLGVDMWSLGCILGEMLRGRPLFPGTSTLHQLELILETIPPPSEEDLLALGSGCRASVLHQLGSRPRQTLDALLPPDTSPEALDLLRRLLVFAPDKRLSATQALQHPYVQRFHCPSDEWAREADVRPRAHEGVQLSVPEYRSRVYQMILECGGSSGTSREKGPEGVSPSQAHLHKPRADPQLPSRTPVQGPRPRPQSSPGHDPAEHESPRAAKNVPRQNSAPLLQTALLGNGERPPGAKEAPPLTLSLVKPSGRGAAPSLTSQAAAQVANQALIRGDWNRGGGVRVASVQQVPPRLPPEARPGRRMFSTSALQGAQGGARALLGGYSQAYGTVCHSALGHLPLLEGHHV
Conditions: protein MAPK15; average of three replicates. An outline of the steps:
(§1)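 Each kinase domain, at 2 μM, is mixed with 20 μM test compound and SYPRO Orange in Hepes (20 mM, pH 7.5) with 500 mM NaCl. Temperature is then raised at 3°C/min and fluorescence-monitored unfolding yields the melting temperature change, ΔTm in degrees Celsius.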

Assay [2] addresses T2, ~100 representative kinases (Homo sapiens, UniProt O14965).
T2 construct: Recombinant protein kinase domains with a concentration of 2 μM
T2 sequence (O14965 1-403): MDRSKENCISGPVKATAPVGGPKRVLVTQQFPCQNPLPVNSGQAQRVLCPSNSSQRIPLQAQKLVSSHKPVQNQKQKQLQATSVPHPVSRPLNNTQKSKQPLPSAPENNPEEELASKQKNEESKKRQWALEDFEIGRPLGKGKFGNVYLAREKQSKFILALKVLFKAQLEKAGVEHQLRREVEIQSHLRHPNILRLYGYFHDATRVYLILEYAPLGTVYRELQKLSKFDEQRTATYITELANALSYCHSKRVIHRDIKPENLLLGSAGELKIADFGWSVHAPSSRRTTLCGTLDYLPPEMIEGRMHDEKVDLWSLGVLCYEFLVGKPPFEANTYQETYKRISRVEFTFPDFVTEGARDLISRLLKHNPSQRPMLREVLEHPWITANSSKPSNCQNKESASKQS
The settings on record: Protein STK6; DSF; average of three replicates. An outline of the steps: as §1

The target in assay [3] is T3, ~100 representative kinases (Homo sapiens, UniProt Q99683).
T3 construct: Recombinant protein kinase domains with a concentration of 2 μM
T3 sequence (Q99683 1-1374): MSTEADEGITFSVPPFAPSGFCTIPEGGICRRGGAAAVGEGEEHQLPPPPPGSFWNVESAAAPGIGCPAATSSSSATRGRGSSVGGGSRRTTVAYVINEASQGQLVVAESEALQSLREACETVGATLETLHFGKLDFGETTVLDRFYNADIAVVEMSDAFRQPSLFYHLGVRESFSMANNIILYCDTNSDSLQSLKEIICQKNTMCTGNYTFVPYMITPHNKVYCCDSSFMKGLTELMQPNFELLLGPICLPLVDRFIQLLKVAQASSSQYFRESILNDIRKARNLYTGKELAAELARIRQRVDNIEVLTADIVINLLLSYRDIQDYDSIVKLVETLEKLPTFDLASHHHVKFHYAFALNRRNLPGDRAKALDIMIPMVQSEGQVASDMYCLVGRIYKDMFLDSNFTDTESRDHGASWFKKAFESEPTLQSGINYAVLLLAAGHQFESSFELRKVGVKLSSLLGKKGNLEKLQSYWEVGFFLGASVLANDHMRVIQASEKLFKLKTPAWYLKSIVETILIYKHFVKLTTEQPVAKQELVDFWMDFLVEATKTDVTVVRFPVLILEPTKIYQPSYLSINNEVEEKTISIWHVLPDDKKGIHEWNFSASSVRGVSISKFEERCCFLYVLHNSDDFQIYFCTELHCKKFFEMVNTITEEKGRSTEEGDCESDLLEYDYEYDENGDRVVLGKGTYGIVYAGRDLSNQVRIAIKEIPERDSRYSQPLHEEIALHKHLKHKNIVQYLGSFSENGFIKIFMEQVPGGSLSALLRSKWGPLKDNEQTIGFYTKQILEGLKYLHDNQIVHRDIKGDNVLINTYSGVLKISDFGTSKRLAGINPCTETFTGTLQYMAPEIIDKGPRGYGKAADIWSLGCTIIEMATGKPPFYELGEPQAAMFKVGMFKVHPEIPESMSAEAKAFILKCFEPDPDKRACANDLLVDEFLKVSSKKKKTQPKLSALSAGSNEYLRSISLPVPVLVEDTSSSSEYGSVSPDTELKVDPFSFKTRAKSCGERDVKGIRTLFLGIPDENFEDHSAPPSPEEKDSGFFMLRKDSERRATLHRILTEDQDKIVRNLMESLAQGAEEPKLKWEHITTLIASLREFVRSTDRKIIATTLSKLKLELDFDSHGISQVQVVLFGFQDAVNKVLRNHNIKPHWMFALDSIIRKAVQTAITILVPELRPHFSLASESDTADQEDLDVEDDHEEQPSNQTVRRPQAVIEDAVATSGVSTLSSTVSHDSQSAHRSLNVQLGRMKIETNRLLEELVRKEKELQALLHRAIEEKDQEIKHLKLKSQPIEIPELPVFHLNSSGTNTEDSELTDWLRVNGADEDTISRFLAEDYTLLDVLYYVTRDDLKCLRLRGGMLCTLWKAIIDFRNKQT
The settings on record: protein MAP3K5; average of three replicates. An outline of the steps: as §1

Assay [4] addresses T4, ~100 representative kinases (Homo sapiens, UniProt O94768).
T4 construct: Recombinant protein kinase domains with a concentration of 2 μM
T4 sequence (O94768 1-372): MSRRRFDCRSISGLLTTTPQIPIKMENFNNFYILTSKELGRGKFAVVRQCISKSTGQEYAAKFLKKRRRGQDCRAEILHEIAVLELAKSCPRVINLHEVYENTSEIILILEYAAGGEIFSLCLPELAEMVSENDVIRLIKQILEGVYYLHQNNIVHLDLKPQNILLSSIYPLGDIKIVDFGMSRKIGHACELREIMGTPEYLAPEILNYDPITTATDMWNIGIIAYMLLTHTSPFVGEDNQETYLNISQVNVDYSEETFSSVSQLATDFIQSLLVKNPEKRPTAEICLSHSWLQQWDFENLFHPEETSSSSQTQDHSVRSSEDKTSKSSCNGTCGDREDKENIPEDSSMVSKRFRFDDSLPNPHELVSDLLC
The settings on record: Protein STK17B; DSF; average of three replicates. An outline of the steps:
as §1

SMILES strings stand for the structures.

Turning to `Cc1ccc(C(=O)Nc2ccc(CN3CCN(C)CC3)c(C(F)(F)F)c2)cc1C#Cc1cnc2[nH]ncc2c1` [GZD-824, reference compound], the dTm is 5.29 K in assay [1], 3.67 K in assay [2], 5.05 K in assay [3] and -1.15 K in assay [4].

As for `C[C@@H]1CN(c2cc(-c3n[nH]c4ccc(OC5(C)CC5)cc34)ncn2)C[C@H](C)O1` [MLi2], the dTm was -0.33 K in assay [1], 0.17 K in assay [2], 3.65 K in assay [3] and 0.38 K in assay [4].

Regarding `Cn1cc(-c2c[nH]c3ncnc(N4CCOCC4)c23)cc1C#N` [PFE-360], the dTm in assay [1] was 3.82 K; in assay [2], 8.08 K; in assay [3] it was 15.45 K; in assay [4], -2.21 K.

On to `CNC(=O)c1cc(Oc2ccc(NC(=O)Nc3cc(C(C)(C)C)nn3-c3ccc4ncccc4c3)c(F)c2)ccn1` [Rebastinib, reference compound], for which the dTm in assay [1] is listed as 14.70 K; in assay [2] it was 1.83 K; in assay [3], 1.38 K; in assay [4] it was 6.81 K.
